Test results reported in publication PMC9085743, “Identification of oleoylethanolamide as an endogenous ligand for HIF-3α” (Nature Communications, 2022).
pKd: −log10 of the molar value.

Molecular target: T1, HIF-3α (Mus musculus, UniProt Q0VBL6)
T1 construct: gene Hif3a; SPR: MBP-HIF-3α-PAS-B (residues 235-363); crystal: HIF-3α residues 4-358 with ARNT residues 82–464; with ARNT (in the crystal, thermal shift, AS-MS, TR-FRET and HDX-MS; not in SPR)
Assay: co-crystal structure ([…] Å), SPR, thermal shift, AS-MS, HDX-MS
Type: binding

T1 sequence (Q0VBL6 235-363): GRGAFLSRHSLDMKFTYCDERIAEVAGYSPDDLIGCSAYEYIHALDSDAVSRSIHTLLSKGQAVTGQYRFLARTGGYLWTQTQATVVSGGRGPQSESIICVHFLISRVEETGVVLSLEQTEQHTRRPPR

CCCCCCCC/C=C\CCCCCCCC(=O)NCCO [OEA, oleoylethanolamide]
pKd: ~4.85
